The numbers were not newly measured in US11903918B2, “Fumarate ester dosage forms with enhanced gastrointestinal tolerability” (BANNER LIFE SCIENCES LLC, priority 2020, dated 2024), which cites them from elsewhere.

Where a name gives a salt, the structure may show the parent alone.

The test system of data set [1] is nuclear factor erythroid-derived 2-like (Nrf2) pathway. As to conditions: in vitro and in vivo in humans.

Consider `COC(=O)/C=C/C(=O)OC` [dimethyl fumarate, dimethyl (E) butenedioate], for which the solubility in water entry is “highly soluble in water”. Further, in data set [1], the “activation of the Nrf2 pathway” value is on record as “activate”.
